Tests used:
Experiment in all cases: Western blot in assay cells
Conditions in all cases: LS174T Notch cells, 12 h
HES5 = assay type: cell-based
Description: (§1) After another 12 h incubation with 50 ng/mL Dox, and cells were washed with PBS. Medium was changed to fresh medium with 2 and incubated for 12 h. […] (C–F) Relative protein levels analyzed by densitometry. […] P values were analyzed by Student’s t test.
(§2) Before another 12 h incubation, 50 ng/mL of doxycycline was added into each dish. Then, medium was changed to fresh medium with each compound. After 12 h incubation, cells were washed with PBS (500 μL) twice and then cells were collected by scraping. Using lysis buffer (20 mM Tris-HCl pH 7.4, 150 mM NaCl, 0.5% sodium deoxycholate, 10 mM EDTA, 1 mM sodium orthovanadate, and 0.1 mM NaF) containing a 1% […] inhibiotor cocktail (Nacalai Tesque, Tokyo, Japan), protein lysate was prepared. Protein lysates were separated by a 7.5%, 10%, 12.5% and 15% SDS-PAGE electrophoresis. Proteins were then transferred to a PVDF membrane (Bio-Rad Laboratories, Inc. Hercules, USA) electrophoretically. The membrane was incubated for 1 h with TBST (10 mM Tris-HCl pH 7.4, 100 mM NaCl and 0.1% Tween 20) containing 5% skimmed milk. […]

HES1 = assay type: cell-based
Description: as §1, §2

NICD = assay type: cell-based, mouse
Description: as §1, §2

Notch1(1704–2531) = assay type: cell-based, mouse
Description: as §1, §2

COc1c(O)cc2oc3cc(O)c(CC=C(C)C)c(O)c3c(=O)c2c1C/C=C(\C)CCC=C(C)C [Compound 2, cowanin]
expression of HES5 (HES5): reduced
expression of HES1 (HES1): reduced
NICD level (NICD): reduced dose dependently
expression of Notch1(1704–2531) (Notch1(1704–2531)): increased

From paper PMC5876388 (Scientific Reports, 2018)
